Like-named read-outs stand apart in the source and are kept apart here.
Assays:
[1] = system: alkaline phosphatase (ALP); assay: cells; settings: Mus musculus; for activation at 10 µM: C2C12, 96 h
[2] = system: alkaline phosphatase (ALP); settings: for RFU Score Threshold ≥ 800: Ex 450/Em 580 nm, rank in brackets not taken; for Fluorescence Z Score Threshold ≥ 10: Z score on DMSO control wells; for RFU Score (10 μM): 154-analog library, C2C12, duplicate
[3] = read-out: NPA Score Threshold ≥ 5.0 (normalized percent activation)
[4] = primary screen, 10 μM, C2C12, 4 days

| SMILES | activation at 10 µM [1] | RFU Score (10 μM) ([2]; 10 μM) | other results |
| --- | --- | --- | --- |
| CN(C)CC1(O)CCCN(S(=O)(=O)c2ccc(-c3ccccc3)cc2)CC1 (centres unmarked) [RU-0259574] | – | – | activation at 10 µM [1, 3]: 9.87%; RFU Score Threshold ≥ 800 [2, 4]: 903 (16); Fluorescence Z Score Threshold ≥ 10 [2, 4]: Below Threshold |
| CC(=O)Nc1ccc2nc(-c3[nH]cnc3-c3ccccc3)ccc2c1 [RU-0260066] | 6.14% | 456 | – |
| O=C(c1[nH]cnc1-c1ccccc1)N1CCOC(c2ccc(Cl)cc2)C1 (centres unmarked) [RU-0261164] | 9.24% | 544 | – |
| c1ccc2c(N3CCN(Cc4cc5n(n4)CCCNC5)CC3)nsc2c1 [RU-0261349] | – | – | activation at 10 µM [1, 3]: 5.04%; RFU Score Threshold ≥ 800 [2, 4]: 884 (18); Fluorescence Z Score Threshold ≥ 10 [2, 4]: 11.32 (22) |
| CCC(c1cccnc1)N(C)Cc1cc2cc(C)cc(C)c2[nH]c1=O (centres unmarked) [RU-0261450] | 9.03% | 538 | – |
| O=C(N[C@H]1CC[C@H](n2cnnc2)CC1)c1[nH]cnc1-c1ccccc1 [RU-0261757] | 7.99% | 508 | – |
| COc1ccc(-c2[nH]nnc2-c2ccccc2)cc1Cn1cncn1 [RU-0262240] | 7.55% | 496 | – |
| CN1CCC(Cc2noc(CCC(=O)c3ccccc3)n2)CC1 [RU-0262489] | – | – | activation at 10 µM [1, 3]: 5.43%; RFU Score Threshold ≥ 800 [2, 4]: Below Threshold; Fluorescence Z Score Threshold ≥ 10 [2, 4]: Below Threshold |
| O=C1NCC2(CCCN(C(=O)c3[nH]cnc3-c3ccccc3)C2)O1 (centres unmarked) [RU-0264094] | 10.6% | 583 | – |
| COc1cccc(-c2[nH]cnc2-c2ccccc2)c1OCCn1ccnc1 [RU-0265092] | 6.93% | 478 | – |
| Cc1cc(C)c2[nH]c(=O)c(-c3c(-c4ccccc4)ncn3C3CCNC3)cc2c1 (centres unmarked) [RU-0266582] | – | – | EC50 ([1]; C2C12): 1.42 µM; Fluo. Z Score ([2]; SAR of library and proprietary analogs, AttoPhos assay, C2C12): 0.48 ± 1.10 |
| Cc1cc(C)c2[nH]c(=O)c(CN3CCOC4(CNCCOC4)C3)cc2c1 (centres unmarked) [RU-0267267] | 9.71% | 557 | – |
| C=CCN(Cc1ccc(F)cc1)C(=O)c1c[nH]c2c(C)cccc2c1=O [RU-0268068] | – | – | activation at 10 µM [1, 3]: 5.81%; RFU Score Threshold ≥ 800 [2, 4]: Below Threshold; Fluorescence Z Score Threshold ≥ 10 [2, 4]: Below Threshold |
| O=C(c1[nH]cnc1-c1ccccc1)N1C[C@H](O)[C@@H](N2CCOCC2)C1 [RU-0268325] | 2.04% | 339 | – |
| CCOC(=O)N1CCC(Nc2ncnc3ccsc23)CC1 [RU-0269711, ethyl 4-(thieno[2,3-e]pyrimidin-4-ylamino)piperidine-1-carboxylate] | – | – | EC50 ([1]; C2C12, read-out: Measured EC50): 28.3 µM; RFU Score Threshold ≥ 800 [2, 4]: 1070 (7); Fluorescence Z Score Threshold ≥ 10 [2, 4]: 14.73 (15); NPA Score Threshold ≥ 5.0 (normalized percent activation) ([2]; primary screen, 10 μM, C2C12, 4 days, normalized against rhBMP4 positive and DMSO negative controls): Below Threshold |
| CN(C)CC1(O)CCCN(C(=O)c2[nH]cnc2-c2ccccc2)C1 (centres unmarked) [RU-0424441] | 3.04% | 368 | – |
| CN1CCN(C(=O)c2[nH]cnc2-c2ccccc2)CC1C(=O)O (centres unmarked) [RU-0424442] | 0.18% | 287 | – |
| CCOc1cccc(-c2[nH]cnc2-c2ccccc2)c1OCC(=O)O [RU-0424443] | 0.87% | 306 | – |
| Cc1cc(C)c2[nH]c(=O)c(CN(C)CCc3scnc3C)cc2c1 [RU-0424444] | 5.79% | 446 | – |
| Cc1ccc2[nH]c(C(=O)O)c(-c3[nH]cnc3-c3ccccc3)c2c1 [RU-0424445] | 4.67% | 364 | – |
| O=C(c1[nH]cnc1-c1ccccc1)N1CCc2onc(-c3ccccc3)c2C1 [RU-0424446] | 1.54% | 325 | – |
| Cc1cc(C)c2[nH]c(=O)c(CN(C)Cc3nc(-c4cccnc4)no3)cc2c1 [RU-0424447] | 0.54% | 297 | – |
| Cc1cc(C)c2[nH]c(=O)c(CN3C[C@@H](C)O[C@@H](C)C3)cc2c1 [RU-0424448] | -1% | 253 | – |
| Cc1cc(C)c2[nH]c(=O)c(CN3CCC(c4nncn4C)CC3)cc2c1 [RU-0424449] | 0.1% | 284 | – |
| Cc1nn(C)c(N2CCOCC2)c1-c1[nH]cnc1-c1ccccc1 [RU-0424450] | 0.24% | 288 | – |
| Cc1cc(C)c2[nH]c(=O)c(CN(Cc3nccn3C)C3CC3)cc2c1 [RU-0424451] | 0.82% | 305 | – |

| SMILES | activation at 10 µM [1] | RFU Score (10 μM) ([2]; 10 μM) | other results |
| --- | --- | --- | --- |
| Cc1cc(C)c2[nH]c(=O)c(CN3CCC(CN)C3)cc2c1 (centres unmarked) [RU-0424452] | 1.65% | 328 | – |
| O=C(c1[nH]cnc1-c1ccccc1)N1CC(c2cccnc2)C1 [RU-0424453] | 1.46% | 323 | – |
| O=C(c1[nH]cnc1-c1ccccc1)N1CCN2C(=O)OCC2C1 (centres unmarked) [RU-0424454] | 1.83% | 333 | – |
| O=C(c1[nH]cnc1-c1ccccc1)N1CCc2[nH]nc(-c3ccccc3)c2C1 [RU-0424455] | 2.3% | 347 | – |
| Cc1cc(C)c2[nH]c(=O)c(CN3CCC(Oc4ncccn4)CC3)cc2c1 [RU-0424456] | 0.99% | 310 | – |
| Cc1cc(C)c2[nH]c(=O)c(CN3CCCC(CS(C)(=O)=O)C3)cc2c1 (centres unmarked) [RU-0424457] | 0.13% | 285 | – |
| Cc1cc(C)c2[nH]c(=O)c(CN3CCCC(N4CCCC4=O)C3)cc2c1 (centres unmarked) [RU-0424458] | 0.87% | 306 | – |
| Cc1cc(C)c2[nH]c(=O)c(CN(C)Cc3noc(C4CC4)n3)cc2c1 [RU-0424459] | 3.58% | 383 | – |
| O=C(c1[nH]cnc1-c1ccccc1)N1CCC(O)(CO)CC1 [RU-0424460] | 5.19% | 429 | – |
| Cc1cc(C)c2[nH]c(=O)c(-c3nccn3[C@@H]3CS(=O)(=O)C[C@H]3O)cc2c1 [RU-0424461] | 4.15% | 399 | – |
| Cc1cc(C)c2[nH]c(=O)c(C3CC(=O)NCc4nc5ccccn5c43)cc2c1 (centres unmarked) [RU-0424462] | 7.81% | 503 | – |
| CC1(C2CCN(C(=O)c3[nH]cnc3-c3ccccc3)CC2)NC(=O)NC1=O (centres unmarked) [RU-0424463] | 4.96% | 422 | – |
| CCCN(Cc1nccn1C)C(=O)c1[nH]cnc1-c1ccccc1 [RU-0424464] | 1.72% | 330 | – |
| Cc1cc(C)c2[nH]c(=O)c(-c3nccn3Cc3ccccn3)cc2c1 [RU-0424465] | 5.14% | 427 | – |
| Cn1cnnc1Sc1ccc(-c2[nH]cnc2-c2ccccc2)o1 [RU-0424466] | 8.64% | 527 | – |
| CO[C@H]1CN(C(=O)c2[nH]cnc2-c2ccccc2)CC[C@H]1N [RU-0424467] | 7.99% | 508 | – |
| COc1ncccc1-n1ccnc1-c1cc2cc(C)cc(C)c2[nH]c1=O [RU-0424468] | 7.97% | 508 | – |
| Cc1cc(C)c2[nH]c(=O)c(CN(C)Cc3cc(-c4cccnc4)no3)cc2c1 [RU-0424469] | 8.96% | 536 | – |
| O=C1OCC2(CCN(C(=O)c3[nH]cnc3-c3ccccc3)CC2)O1 [RU-0424470] | 7.58% | 497 | – |
| Cc1cc(C)c2[nH]c(=O)c(CN3CCCC4(C3)CN(C)C(=O)O4)cc2c1 (centres unmarked) [RU-0424471] | 8.55% | 524 | – |
| COc1ccccc1N1CCN(C(=O)c2[nH]cnc2-c2ccccc2)CC1=O [RU-0424472] | 4.08% | 397 | – |
| CCNC(=O)[C@@H]1CCCN1Cc1cc2cc(C)cc(C)c2[nH]c1=O [RU-0424473] | 6.63% | 470 | – |
| Cc1cc(C)c2[nH]c(=O)c(C3c4nc[nH]c4CCN3Cc3ccco3)cc2c1 (centres unmarked) [RU-0424474] | 10% | 566 | – |
| O=C(Nc1cnc2n1CCCC2)c1[nH]cnc1-c1ccccc1 [RU-0424475] | 6.39% | 491 | – |
| Cc1cc(C)c2[nH]c(=O)c(CN3C[C@H]4CC[C@@H](C3)N(C)C4=O)cc2c1 [RU-0424476] | 8.41% | 520 | – |
| CN(C)C1CCN(C(=O)c2cccc(-c3[nH]cnc3-c3ccccc3)c2)C1 (centres unmarked) [RU-0424477] | 6.59% | 469 | – |

Source: patent US11478466B2, “Small molecule promoting osteoblast differentiation” (Cornell University, priority 2019, dated 2022)
